Measurements from patent US11571441B2, “Sideroflexins as mitochondrial serine transporters” (Whitehead Institute for Biomedical Research, priority 2018, dated 2023).
Entries after “also recorded” stand apart in the source; their conditions may differ. Like-named read-outs stand apart in the source and are kept apart here.

T1: SFXN1 (Homo sapiens, UniProt Q9H9B4)
T1 construct: made in house
T1 sequence (Q9H9B4 1-322): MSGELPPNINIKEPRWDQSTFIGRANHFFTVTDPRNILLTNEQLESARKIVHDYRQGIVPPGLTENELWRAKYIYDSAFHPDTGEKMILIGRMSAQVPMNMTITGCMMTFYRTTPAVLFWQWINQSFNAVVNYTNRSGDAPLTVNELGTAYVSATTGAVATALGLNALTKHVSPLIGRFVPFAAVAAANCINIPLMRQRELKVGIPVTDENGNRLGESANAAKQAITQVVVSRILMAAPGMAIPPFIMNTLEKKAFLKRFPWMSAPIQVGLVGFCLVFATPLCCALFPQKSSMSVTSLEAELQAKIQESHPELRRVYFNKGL


How the values were obtained:
SFXN1 [1] = target: T1, SFXN1; assay: In vitro transport assay: [3H] serine/alanine uptake into SFXN1 proteoliposomes; format: biochemical; details: for competition of serine uptake by different metabolites (FIG. 3B) / competition of serine uptake by different metabolites (FIG. 3C): after 60 min, SFXN1 liposomes; for competition of serine uptake by different metabolites (FIG. 3C): metabolites at 500 μM; for Km: steady-state kinetic analysis, proteoliposomes
Experimental: (§1) In vitro transport assays were performed as described previously with the following specifications. Flag-SFXN1 was purified from 293T cells stably expressing the protein using FLAG-affinity purification and eluted off beads with FLAG peptide.
(§2) 1% Phosphatidylcholine was added to total E. coli lipids in chloroform, evaporated under nitrogen and desiccated overnight. Dried lipids were hydrated in inside buffer (20 mM MES pH 7, 50 mM NaCl, 20 mM KCl) by freeze-thawing in liquid nitrogen 20× times. Lipids were extruded 6× though a 0.4 μm filter and 15× through a 0.1 μm filter. 15 ug of purified SFXN1 protein were reconstituted into 1.2 mg liposomes using a detergent:lipid ratio of 5:1 with the addition of 1 mM DTT in inside buffer rotating at 4 degree for 1 hour. The proteoliposomes were incubated for 3 sequential rounds with Bio-beads to remove detergent. A liposome-only control was prepared by replacing the protein with inside buffer in the reconstitution reaction. Incorporation of protein into liposomes was assessed using glycerol gradient centrifugation. A buffer containing 20 mM Tris-HCL pH 7.4 and 100 mM NaCl was used as outside buffer in transport reactions.
In vitro transport assays were performed as described previously (43, 44) with the following specifications. FLAG-SFXN1 was purified from HEK-293T cells stably expressing the protein using FLAG-affinity purification and eluted off the beads with the FLAG peptide.
1% Phosphatidylcholine was added to total E. coli lipids in chloroform, evaporated under nitrogen and desiccated overnight. Dried lipids were hydrated in inside buffer (20 mM MES pH 7, 50 mM NaCl, 20 mM KCl) by freeze-thawing in liquid nitrogen 20× times. Lipids were extruded 6× through a 0.4 μm filter and 15× through a 0.1 μm filter. 15 μg of purified SFXN1 protein were reconstituted into 1.2 mg liposomes using a detergent:lipid ratio of 5:1 with the addition of 1 mM DTT in inside buffer rotating at 4° C. for 1 hour. The proteoliposomes were incubated for 3 sequential rounds with Bio-Beads to remove detergent. A liposome-only control was prepared by replacing the protein with inside buffer in the reconstitution reaction. Incorporation of protein into liposomes was assessed using a glycerol gradient centrifugation assay. [3H] […] Different lots of total E. coli lipid extracts were tested and ones that optimally preserved SFXN1 activity were used in experiments.

[2] = tested on: SFXN1/3-null Jurkat cells; assay: Cell proliferation assay in glycine-deficient media, formate rescue; format: cell-based, human; details: 1 mM formate, cells cultured with it 2 days before the experiment
Experimental: (§3) 10,000 cells per well were seeded into 96 well plates in triplicate. Cell titer glo reagent (Promega) was added to one plate immediately after seeding and luminescence was measured, while a second plate was read-out 4 days after seeding. Number of doublings in 4 days was determined by calculating the log2 fold-change in signal between day 0 and 4. For formate rescue experiments, 1 mM formate was added to cells at time of seeding (Jurkat cells) or cells were cultured in formate-containing media for 1 week prior to the experiment (K562 cells) unless indicated otherwise.
(§4) 10,000 cells per well were seeded into 96-well plates in triplicate. Cell titer glo reagent (Promega) was added to one plate immediately after seeding and luminescence was measured, while a second plate was read-out 4 days after seeding. Number of doublings in 4 days was determined by calculating the log2 fold-change in signal between day 0 and 4. For formate rescue experiments, 1 mM formate was added to media at the time of seeding (Jurkat cells) or cells were cultured in formate-containing media for 1 week prior to the experiment (K562 cells) unless indicated otherwise.

[3] = tested on: SFXN1-null cells (Jurkat and K562); assay: Cell proliferation assay (Cell titer glo) in serine-deficient media, formate rescue; format: cell-based, human; details: 1 mM formate added, 4 days
Experimental: as §3, §4

SFXN1-null Jurkat cells = assay: LC-MS metabolite quantification (purine synthesis intermediates, serine, glycine) in SFXN1-null cells; format: cell-based, human; details: 1 mM formate, 24 hours in indicated media
Experimental: Quantification of metabolite abundance using LC/MS-based metabolomics was performed and analyzed as previously described. Briefly, Jurkat or K562 cells were seeded at densities of 0.6×10^6 per ml and 0.33×10^6 per ml, respectively. 24 h later, 2×10^6 Jurkat or 1×10^6 K562 cells were harvested, washed once in ice-cold 0.9% saline prepared with LC-MS grade H2O, and extracted with 80% methanol containing 500 nM isotope-labeled amino acids as internal standards (Cambridge Isotope Laboratories). The samples were vortexed for 10 min at 4° C. and spun down at 17,000×g. The supernatant was dried by vacuum centrifugation at 4° C. Samples were stored at −80° C. until analyzed. On the day of analysis, samples were resuspended in 50-100 μL of LC/MS grade water and the insoluble fraction was cleared by centrifugation at 15,000 rpm. The supernatant was then analyzed as previously described by LC/MS (21, 33). […]
Metabolite abundance using LC/MS-based metabolomics was measured and quantified as previously described (15). […] Samples were stored at −80° C. until analyzed. […] The supernatant was then analyzed as previously described by LC-MS (15, 38) Amino acids were normalized to their respective internal standards, purine synthesis intermediates were normalized to the glutamate internal standard. […]

SFXN1 [4] = assay: Amino acid uptake into mitochondria isolated from wild-type or SFXN1-null Jurkat cells; format: biochemical, human; details: 0.75 μM [3H] serine or 3 μM [3H] glutamate, 30° C.
Experimental: Mitochondria from wild-type or SFXN1-null Jurkat cells were prepared according to (45). Briefly, cells (˜1 g starting material) were resuspended in low tonicity buffer (100 mM sucrose, 10 mM MOPS pH 7.2, 1 mM EGTA, 0.1% BSA) and disrupted with 20 strokes in a homogenizer containing a pure PTFE head (VWR International) and two strokes with a dounce tissue grinder with tight-fitting pestle (DWK Life Sciences Kimbl Kontes). After adjusting tonicity, lysates were spun twice at 950×g to remove unbroken cells and nuclei, and mitochondria were pelleted by centrifuging at 10,000×g for 10 min. […] Mitochondrial preparations were adjusted for protein content. […] 50 μl samples were collected immediately after start of the reaction and at 1, 2, 3 mins and added to mixed cellulose-ester filters (Fisher Scientific, 0.22 μm pore size) connected to a vacuum line (adapted from (47)). Filters were washed with 3 mL of ice cold TBS and the radioactivity remaining on the filters was measured using a scintillation counter. Blank reaction samples, in which mitochondria were replaced with incubation media, were used to subtract the background. The uptake rate was calculated from the first two minutes of the reaction.

[5] = substrate: N[C@@H](CO)C(=O)O; assay: purified protein, by the assay type; format: biochemical, human; details: other: steady-state kinetic analysis; proteoliposomes; [3H] serine 1 μM with increasing unlabeled serine
Experimental: as §1
as §2, with “reactions. […]” for “reactions.”
1% Phosphatidylcholine was added to total E. coli lipids in chloroform, evaporated under nitrogen and desiccated overnight. […] Incorporation of protein into liposomes was assessed using a glycerol gradient centrifugation assay. […]

[6] = substrate: C[C@H](N)C(=O)O; assay: purified protein, by the assay type; details: other: steady-state kinetic analysis; proteoliposomes

Row | competition of serine uptake by different metabolites (FIG. 3B) (SFXN1 [1]) | Molecule | competition of serine uptake by different metabolites (FIG. 3C) (SFXN1 [1]) | also measured
1 | able to complete serine uptake | N[C@H](CO)C(=O)O [D-serine] | competed with the transport of the labelled serine | 
2 | able to complete serine uptake | N[C@@H](CO)C(=O)O [L-serine] | competed with the transport of the labelled serine | 
3 | able to complete serine uptake | C[C@H](N)C(=O)O [alanine] | competed with the transport of the labelled serine; also recorded: partially competed with serine | Km (SFXN1 [1]; read-out: Km of SFXN1-mediated alanine transport): ~371 µM
4 |  | O=C(O)CC(O)(CC(=O)O)C(=O)O [citrate] | Neither formate nor citrate competed with serine transport; also recorded: does not compete with serine | 
5 |  | N[C@@H](CS)C(=O)O [cysteine] | competed with the transport of the labelled serine; also recorded: partially competed with serine | 
6 |  | N[C@@H](CCC(=O)O)C(=O)O [glutamate] |  | radioactive amino acid uptake into mitochondria from SFXN1-null cells compared to wild-type (SFXN1 [4]): unaffected; also recorded: unchanged
7 |  | NCC(=O)O [glycine] | competed with the transport of the labelled serine; also recorded: partially competed with serine | 
8 |  | N[C@@H](CO)C(=O)O [serine] |  | radioactive amino acid uptake into mitochondria from SFXN1-null cells compared to wild-type (SFXN1 [4]): reduced; Km (SFXN1 [1]; [3H] serine 1 μM with increasing unlabeled serine, read-out: Km of SFXN1-mediated serine transport): 170 µM
9 |  | SFXN1 (Homo sapiens) (protein, made in house) MSGELPPNINIKEPRWDQSTFIGRANHFFTVTDPRNILLTNEQLESARKIVHDYRQGIVPPGLTENELWRAKYIYDSAFHPDTGEKMILIGRMSAQVPMNMTITGCMMTFYRTTPAVLFWQWINQSFNAVVNYTNRSGDAPLTVNELGTAYVSATTGAVATALGLNALTKHVSPLIGRFVPFAAVAAANCINIPLMRQRELKVGIPVTDENGNRLGESANAAKQAITQVVVSRILMAAPGMAIPPFIMNTLEKKAFLKRFPWMSAPIQVGLVGFCLVFATPLCCALFPQKSSMSVTSLEAELQAKIQESHPELRRVYFNKGL |  | Km [5]: 170 µM; Vmax [5]: 8.2 pmol/min; Km [6]: 371 µM

Row | Molecule | competition of serine uptake by different metabolites (FIG. 3B) (SFXN1 [1]) | competition of serine uptake by different metabolites (FIG. 3C) (SFXN1 [1]) | also measured
10 | O=CO [formate] | not able to complete serine uptake | Neither formate nor citrate competed with serine transport | rescue of proliferation of SFXN1/3-null cells in the absence of glycine [2]: unable to rescue the growth defect; also recorded: did not reverse their proliferation defect; also recorded: does not rescue proliferation; rescue of proliferation of SFXN1-null cells in serine-deficient media [3]: completely restored growth of SFXN1-null cells; also recorded: completely reversed the slow proliferation; also recorded: rescues growth; accumulation of purine synthesis intermediates (GAR, SAICAR, AICAR) in SFXN1-null cells (SFXN1-null Jurkat cells): completely abolish their accumulation; also recorded: abolished the accumulation of the intermediates; also recorded: reverses the accumulation of purine synthesis intermediates; glycine levels and serine/glycine ratio of SFXN1-null cells (SFXN1-null Jurkat cells): without rescuing the cellular serine and glycine levels; also recorded: did not rescue the defects in glycine levels; also recorded: does not rescue glycine levels and serine/glycine ratio
